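Dose response: 5 concentrations. Exposure: 48 h. Format: 96-well plates. Endpoint: linear interpolation; highest concentration if not reached. TGI is the concentration that stops growth completely.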
What was measured:
Assay in all cases: NCI-60 cell line screen, 48 h
[1] = tested on: SF-539 CNS
[2] = tested on: SK-MEL-28 melanoma
[3] = tested on: MDA-N
[4] = tested on: HOP-62 NSCLC
[5] = tested on: COLO 205 colon
[6] = tested on: SNB-19 CNS
[7] = tested on: SR leukemia
[8] = tested on: HT29 colon
[9] = tested on: UACC-257 melanoma
[10] = tested on: UACC-62 melanoma
[11] = tested on: MCF7 breast

Row | SMILES | TGI [1] [µM] | TGI [2] [µM] | TGI [3] [µM] | TGI [4] [µM] | TGI [5] [µM] | TGI [6] [µM] | TGI [7] [µM] | TGI [8] [µM] | TGI [9] [µM] | TGI [10] [µM] | TGI [11] [µM]
1 | C/C(=N\NC(=S)NCCCNC(=S)N/N=C(\C)c1ccccn1)c1ccccn1 | 8.72 | > 100 | > 100 | 20.7 | > 34.9 | > 69.7 | 6.19 | > 100 | 29 | 14.2 | > 50.6
2 | Nn1c(Cc2ccc([N+](=O)[O-])cc2)n[nH]c1=O | > 100 | > 100 | > 100 | > 100 | > 100 | > 100 | > 100 | > 100 | > 100 | > 100 | > 100
3 | CCOC(=O)C(SCCO)C(C(=O)OCC)n1ccc(=O)[nH]c1=O (centres undefined) | > 71.6 | > 86.7 | 97.8 | > 96.6 | > 59.3 | > 100 | 34 | 83.3 | > 100 | 67.3 | > 62.1
4 | C=C(C)[C@@H]1CCC2=C[C@H](OC2=O)[C@@]2(C)C[C@@H]2C2=CC(C)=C(O2)[C@H]1O | > 75 | > 75 | > 75 | > 75 | > 75 | > 75 | > 75 | > 75 | > 75 | > 75 | > 75
5 | CCCCCCCCCCNC(=O)CCC(NC(=O)c1ccc(N(C)Cc2cnc3nc(N)nc(N)c3n2)cc1)C(=O)NCCCCCCCCCC (centres undefined) | 15.3 | 23.6 | 21.9 | > 95.7 | 15.2 | 31.7 | > 24.5 | 35.2 | > 60.1 | 49.5 | 15.3
6 | Cc1nc2c(=O)n(C)ncc2[nH]1 | > 100 | > 100 | > 100 | > 100 | > 100 | > 100 | > 100 | > 100 | > 100 | > 100 | > 100
7 | CO/N=C(\C)CCC#Cc1ccccc1C(=O)OC | > 10 | > 10 | > 10 | > 10 | > 10 | > 10 | > 10 | > 10 | > 10 | > 10 | > 10
8 | CCOC(=O)c1c(N2CCOCC2)[nH]c(=O)c(C(c2ccco2)c2c(O)c(C(=O)OCC)c(N3CCOCC3)[nH]c2=O)c1O | > 100 | > 100 | > 100 | > 100 | > 100 | > 100 | > 100 | > 100 | > 100 | > 100 | > 100
9 | Nc1onc2c1Cc1c(noc1N)-c1ccccc1-2 | > 100 | > 100 | > 100 | > 100 | > 100 | > 100 | > 100 | > 100 | > 100 | > 100 | > 100
10 | C=C(Br)CNC(=O)CCC(=O)NCC(=C)Br | > 100 | > 100 | > 100 | > 100 | > 100 | > 100 | > 100 | > 100 | > 100 | > 100 | > 100
11 | CCC(=O)Nc1ccc(N2C(=O)C(Cl)C2c2ccc(SC)cc2)cc1 (centres undefined) | > 100 | > 100 | > 100 | > 100 | > 100 | > 100 | > 100 | > 100 | > 100 | > 100 | > 100
12 | Cc1ccc(NC(=O)c2cc(S(=O)(=O)Nc3nc4ncccc4[nH]3)c(SSc3cc(Cl)c(C(=O)Nc4ccc(C)cc4)cc3S(=O)(=O)Nc3nc4ncccc4[nH]3)cc2Cl)cc1 | > 100 | > 100 | > 100 | > 100 | > 100 | > 100 | > 100 | > 100 | > 100 | > 100 | > 100
13 | N#Cc1cnc(N)nc1NCC1(CO)CC(CCc2ccccc2)C1 (centres undefined) | > 100 | > 100 | > 100 | > 100 | > 100 | > 100 | > 100 | > 100 | > 100 | > 100 | > 100
14 | CC(=O)Nc1ccc(C2SCc3nc4ccccc4n32)cc1 (centres undefined) | > 100 | > 100 | > 100 | > 100 | > 100 | > 100 | > 100 | > 100 | > 100 | > 100 | > 100

— PubChem BioAssay (NCI)
